PubChem BioAssay AID1033 (Sanford-Burnham Center for Chemical Genomics, 2008)
Active and inactive are the calls of the source. How the calls were made is not given here.

What follows are molecules tested against Chaperone protein DnaK (Escherichia coli (strain K12)) (UniProt P0A6Y8) (assay: E. coli DnaK SBD ligand binding – biophysical, NMR, chaperone (AID 1033)). Settings: Purified DnaK SBD.
Chain of Chaperone protein DnaK (Escherichia coli (strain K12)) (P0A6Y8 whole entry, looked up): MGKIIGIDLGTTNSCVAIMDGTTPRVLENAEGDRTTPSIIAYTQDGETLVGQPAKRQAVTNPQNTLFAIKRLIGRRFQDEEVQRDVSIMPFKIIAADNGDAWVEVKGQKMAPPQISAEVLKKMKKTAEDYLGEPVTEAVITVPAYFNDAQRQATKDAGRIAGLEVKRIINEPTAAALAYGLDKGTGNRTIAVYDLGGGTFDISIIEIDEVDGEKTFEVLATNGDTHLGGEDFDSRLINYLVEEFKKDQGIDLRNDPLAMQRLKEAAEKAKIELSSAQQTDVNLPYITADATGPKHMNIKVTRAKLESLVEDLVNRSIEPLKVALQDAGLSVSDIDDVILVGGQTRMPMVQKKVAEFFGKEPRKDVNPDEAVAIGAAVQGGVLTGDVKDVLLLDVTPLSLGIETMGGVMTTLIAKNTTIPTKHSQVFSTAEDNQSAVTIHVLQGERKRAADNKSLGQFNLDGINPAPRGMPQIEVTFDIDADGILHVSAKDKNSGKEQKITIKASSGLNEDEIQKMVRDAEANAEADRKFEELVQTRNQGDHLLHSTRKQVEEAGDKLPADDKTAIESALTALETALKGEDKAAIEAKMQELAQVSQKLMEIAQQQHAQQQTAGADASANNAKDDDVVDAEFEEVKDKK

Compound	Kd
O=C(O)c1cccc(N2C(=O)C3CC=CCC3C2=O)c1 (stereo not given)	> 4 mM (inactive)
CC(C)C1COc2cc3oc(=O)ccc3cc2O1 (stereo not given)	> 4 mM (inactive)
c1ccc2c(c1)[nH]c1cnccc12	> 4 mM (inactive)
O=S(=O)(Nc1cccnc1Cl)c1ccccc1	> 4 mM (inactive)
Cn1nnc2cc(CN)ccc21	> 4 mM (inactive)
COc1c2ccoc2c(OC)c2oc(=O)ccc12	> 4 mM (inactive)
CC(C)=CCCC1(C)C=Cc2c(O)c3c(c(CC=C(C)C)c2O1)OC12C(=CC4CC1C(C)(C)OC2(C/C=C(/C)C(=O)O)C4=O)C3=O (stereo not given)	> 4 mM (inactive)
O=C(NCc1cccc2ccccc12)c1cccs1	< 0.2 mM
Nc1cccc(CC(=S)N2CCOCC2)c1	> 4 mM (inactive)
CC(=O)Nc1cc(C(N)=O)cc(C(N)=O)c1	> 4 mM (inactive)
O=C(Nc1nncs1)c1c(F)c(F)c(F)c(F)c1F	> 4 mM (inactive)
Cc1c(C(=O)Nc2ccccn2)oc2ccccc12	> 4 mM (inactive)
O=C1CC[C@]23/C=C/C(=O)NCCCCNCCCNC(=O)/C=C/c4ccc(c2c4)O[C@@H]3C1	> 4 mM (inactive)
COc1c2c(cc3cc[n+](C)cc13)OCO2	> 4 mM (inactive)
CCc1c(C(=O)Nc2ccncc2)csc1C	> 4 mM (inactive)
Cc1c(O)c(O)cc2c1CC=C1[C@@]2(C)CC[C@@]2(C)C3C[C@](C)(C(=O)O)CC[C@]3(C)CC[C@]12C (stereo not given in full)	> 4 mM (inactive)
COC(=O)[C@@H]1OC(=O)C2OC23[C@@]1(C)CCC1[C@]2(C)C(C[C@H](O)[C@]13C)C(C)(C)[C@H](OC(C)=O)C[C@@H]2OC(C)=O (stereo not given in full)	> 4 mM (inactive)
CCc1nnc(NC(C)=O)s1	> 4 mM (inactive)
O=C(O)c1scc2c1CCCC2	> 4 mM (inactive)
c1ccc(-n2cnnc2)nc1	> 4 mM (inactive)
COc1cc2c(cc1OC)[C@@H]1C(=O)c3ccc(O)c(CC=C(C)C)c3O[C@@H]1CO2	> 4 mM (inactive)
CCNC(CC(=O)Nc1ccc(O)cc1)C(=O)O (stereo not given)	> 4 mM (inactive)
S=C1NC(=S)NC(c2ccc3c(c2)OCO3)N1	> 4 mM (inactive)
COC(=O)CSc1ncnc2c(C)csc12	> 4 mM (inactive)

Compound	Kd
CC(=O)NC(c1ccccc1)c1cccnc1 (stereo not given)	> 4 mM (inactive)
NC(=O)C1CCN(C(=O)c2ccccc2)CC1	> 4 mM (inactive)
CN1CCN(c2ccc(N)cc2)CC1	> 4 mM (inactive)
CC1CCC2(OC1)OC1CC3C4CC[C@H]5C[C@@H](O)CC[C@]5(C)C4CC(=O)[C@]3(C)C1C2C (stereo not given in full)	> 4 mM (inactive)
Cc1cc(=O)n2[nH]c(COc3ccccc3)nc2n1	> 4 mM (inactive)
O=C(Nc1nc2ccccc2s1)c1ccc(=O)[nH]n1	> 4 mM (inactive)
N#Cc1cn(CC(=O)N2CCCC2)c2ccccc12	> 4 mM (inactive)
OCc1cc(F)cc2c1OCOC2	> 4 mM (inactive)
COc1cc2c(cc1O)[C@@H](Cc1ccc(O)cc1)[N+](C)(C)CC2	> 4 mM (inactive)
CSc1ncnc2nc[nH]c12	> 4 mM (inactive)
CC(=O)Nc1ccc2c(C)cc(=O)[nH]c2c1	> 4 mM (inactive)
O=C1NC(=S)N/C1=C/c1ccsc1	> 4 mM (inactive)
CC(=O)Nc1cccc(N2CCCC2=O)c1	> 4 mM (inactive)
CN(C)c1ccc(CNn2cnnc2)cc1	> 4 mM (inactive)
O=C(Cc1c(F)cccc1Cl)Nc1ccncc1	> 4 mM (inactive)
CC(O)C(=O)N/N=C/c1ccccc1 (stereo not given)	> 4 mM (inactive)
CNC(=O)C1COc2ccccc2O1 (stereo not given)	> 4 mM (inactive)
COc1ncnc(N)c1[N+](=O)[O-]	> 4 mM (inactive)
CN1C2C[C@H](OC(=O)[C@H](CO)c3ccccc3)C[C@H]1[C@@H](O)C2	> 4 mM (inactive)
CC(=O)Nc1nc2c(s1)C(=O)NCCC2	> 4 mM (inactive)
Cc1c(C(=O)NC2=NCCS2)oc2ccccc12	> 4 mM (inactive)
CCC1=Nc2ccccc2-c2nnc(SC)nc2O1	> 4 mM (inactive)
O=C(O)c1ncoc1-c1ccccc1	> 4 mM (inactive)
COc1ccc2c(C)cc(=O)oc2c1	> 4 mM (inactive)

Compound	Kd
COC(=O)C1CCc2ccccc2N1 (stereo not given)	> 4 mM (inactive)
CC1=NN(C(N)=S)C(C)(C)C1	> 4 mM (inactive)
COc1c(O)cccc1O	> 4 mM (inactive)
CON(C)C(=O)Nc1ccc(Cl)cc1	> 4 mM (inactive)
O=C(O)[C@H](O)[C@@](O)(Cc1ccc(O)cc1)C(=O)O	> 4 mM (inactive)
O=C1C(=O)N(CNc2ncccn2)c2ccccc21	> 4 mM (inactive)
Nc1nonc1-c1nc2ccccc2[nH]1	> 4 mM (inactive)
O=C(c1ccco1)N1CCCN(C(=O)c2ccco2)CC1	> 4 mM (inactive)
Cc1cc(C)nc(Nc2n[nH]c(Cc3ccccc3)n2)n1	> 4 mM (inactive)
O=C(O)c1ccc2c(c1)OCCO2	> 4 mM (inactive)
CC(=O)c1c(C)nc(-c2ccc(F)cc2)n1O	> 4 mM (inactive)
Cc1noc(C)c1C(=O)Nc1ccccn1	> 4 mM (inactive)
Cn1nnc2c(N3CCC(C(N)=O)CC3)ncnc21	> 4 mM (inactive)
Cn1c([O-])c([N+](C)(C)C)c(=O)n(C)c1=O	> 4 mM (inactive)
COc1cc2c(cc1OC)Cc1cc(OC)c(OC)cc1Cc1cc(OC)c(OC)cc1C2	> 4 mM (inactive)
Cc1cc(NC(=O)c2c(F)c(F)c(F)c(F)c2F)no1	> 4 mM (inactive)
COc1ccc(NC(=O)/C=N/O)cc1	> 4 mM (inactive)
Cc1c(-c2ccc(F)cc2)[n+](=O)c2c(n1[O-])CCC2	> 4 mM (inactive)
Oc1ccc(-n2ccnc2)cc1	> 4 mM (inactive)
CC(=O)c1c(C)nc(C)nc1NC(=O)C(C)C	> 4 mM (inactive)
CC(C)CNc1cc(=O)n(C)c(=O)n1C	> 4 mM (inactive)
O=C(O)Cc1noc2ccccc12	> 4 mM (inactive)
Fc1cccc(F)c1CN1CCN(c2ncccn2)CC1	> 4 mM (inactive)
NC(=O)c1c[nH]c2ccccc12	> 4 mM (inactive)

Compound	Kd
COc1ccc(-c2coc3c(OC)c(OC)cc(O)c3c2=O)cc1	> 4 mM (inactive)
O=C(NCc1ccncc1)c1cccc(F)c1	> 4 mM (inactive)
CNC(=O)CC1Sc2ccccc2NC1=O (stereo not given)	> 4 mM (inactive)
Cc1cc(=O)n2[nH]cnc2n1	> 4 mM (inactive)
Cc1ccc(N)nc1	> 4 mM (inactive)
Cc1ccc2c(c1)CCCN2C(=O)c1c(C)noc1C	> 4 mM (inactive)
CNC(=S)N1CCN=C1Nc1nc(C)cc(C)n1	> 4 mM (inactive)
O=C1N=C(N2CCOCC2)S/C1=C\c1cccnc1	> 4 mM (inactive)
CNC(=O)Oc1ccc2c(c1)[C@]1(C)CCN(C)[C@@H]1N2C	> 4 mM (inactive)
COc1ccccc1-c1noc(-c2ccncc2)n1	> 4 mM (inactive)
Cn1nc(C(=O)NC2CCCCC2)c2ccccc2c1=O	> 4 mM (inactive)
CCn1ccc(C(=O)Nc2nccs2)n1	> 4 mM (inactive)
Cn1c(=O)c2c(n(C)c1=O)=NC1(CCCCC1)N=2	> 4 mM (inactive)
O=C(CN1C(=O)CCC1=O)c1ccccc1	> 4 mM (inactive)
CC1=CC(=O)C2C(C)(C)CCC[C@]2(C)[C@@]1(O)CCc1ccoc1 (stereo not given in full)	> 4 mM (inactive)
S=c1oc(-c2ccncc2)nn1CCc1ccncc1	> 4 mM (inactive)
Cc1cc(C)n2nc(SCC(=O)c3ccccc3)nc2n1	> 4 mM (inactive)
Cc1ccc(-c2nnn(CC(=O)O)n2)cc1	> 4 mM (inactive)
Cn1c(CNc2ccccc2)cc(=O)n(C)c1=O	> 4 mM (inactive)
CCC(=O)Nc1ccccc1NC(C)=O	> 4 mM (inactive)
O=C(NN1CCOCC1)c1cccs1	> 4 mM (inactive)
O=C(Nn1cnnc1)c1cccc(C(F)(F)F)c1	> 4 mM (inactive)
CCOC(=O)c1cnc2sccn2c1=O	> 4 mM (inactive)
Nc1cc(=O)[nH]c(=S)n1CCc1ccccc1	> 4 mM (inactive)

Compound	Kd
COc1ccc(N/C(N)=N\c2nc(C)cc(C)n2)cc1	> 4 mM (inactive)
NC(=O)CSc1nnc2ccc3ccccc3n12	> 4 mM (inactive)
C=C(C)CSc1nc2nc(C)cc(C)n2n1	> 4 mM (inactive)
Cn1cc(Cl)c(C(=O)NC2CCCCCC2)n1	> 4 mM (inactive)
CCSc1nc2ccccc2n1CC(N)=O	> 4 mM (inactive)
Nc1c(C(=O)O)sc2ncccc12	> 4 mM (inactive)
Cn1cc(Cl)c(C(=O)Nc2ccc(F)cc2F)n1	> 4 mM (inactive)
CCn1c(C)c(C(C)=O)c(N2CCN(C)CC2)nc1=S	> 4 mM (inactive)
Cc1nc2ccc(F)cc2cc1C(=O)NCc1ccco1	> 4 mM (inactive)
COc1ccc(CC(=O)c2ccc(O)cc2O)cc1	> 4 mM (inactive)
O=S(=O)(c1ccc(F)c(Cl)c1)N1CCCC1	> 4 mM (inactive)
O=C1c2ccccc2C(=O)c2c1ccc(O)c2O	> 4 mM (inactive)
Cc1ccn(S(=O)(=O)c2ccc(C(C)(C)C)cc2)n1	> 4 mM (inactive)
COC(=O)c1ccc2nc[nH]c2c1	> 4 mM (inactive)
Nc1ccc2ncsc2c1	> 4 mM (inactive)
O=S(=O)(NCc1ccco1)c1cccc2cccnc12	> 4 mM (inactive)
CC(=O)O[C@@H]1CC2C(C)(C)[C@H](O)C=C[C@]2(C)C2CC[C@]3(C)C(=CC(=O)O[C@H]3c3ccoc3)[C@@]21C (stereo not given in full)	> 4 mM (inactive)
COc1ccc2cnn(-c3ccccc3)c(=O)c2c1OC	> 4 mM (inactive)
Cc1cc(C(=O)NN2CCOCC2)c(C)o1	> 4 mM (inactive)
CC(C)C(C)/C=C/C(C)[C@H]1CCC2C3=CCC4CC(=O)CC[C@]4(C)C3CC[C@@]21C (stereo not given in full)	> 4 mM (inactive)
CNC(=O)C1CC(=O)N(c2ccc(O)cc2)C1 (stereo not given)	> 4 mM (inactive)
CCCSc1nnc2[nH]c(=O)cc(N)n12	> 4 mM (inactive)
CN(C)C(=O)Oc1cccc(-c2nnco2)c1	> 4 mM (inactive)
Cc1nc2nc(-c3ccco3)nn2c(C)c1Cl	> 4 mM (inactive)
